Patent US20200033346A1, “DIAGNOSTIC AND THERAPEUTIC METHODS FOR KRAS POSITIVE CANCERS” (The Board of Trustees of the Leland Stanford Junior …, priority 2017, published 2020)

Columns and labels:
[1] = system: FASN and SCD gene expression; assay: Real-time PCR of FASN and SCD mRNA in human lung cancer cell lines after inhibitor treatment; assay type: cell-based; details: qPCR
Protocol: Cell culture. The human non-small cell lung carcinoma cell lines, A549 and H1299, were used for in vitro experiments. A549 cells were maintained in Dulbecco's Modified Eagle Medium (DMEM) supplemented with 10% fetal bovine serum (FBS), 1% L-glutamine, 1% sodium pyruvate, 1% nonessential amino acids, and Antibiotic-Antimycotic. H1299 cells were maintained in RPMI 1640 medium supplemented with 10% FBS, 50 μM β-mercaptoethanol, and Antibiotic-Antimycotic. Trypsin-EDTA was used to passage both A549 and H1299 cells. All cell culture reagents were purchased from Gibco® (Thermo Fisher Scientific Inc.). Small molecule inhibitors. […] FTS is a synthetic famesylcysteine mimetic which interferes with the anchoring of KRAS to the plasma membrane. […] Various levels of these drugs were administered to cells in culture over a time course in order to assess dose-response relationships. RNA extraction and cDNA synthesis. Total RNA was isolated from cells and lung tissue using the QIAGEN RNeasy Mini kit. RNA quality and concentration were assessed by the NanoDrop® spectrophotometer. The RNA was reverse transcribed into cDNA using the SuperScript® III First-Strand Synthesis System (Invitrogen). […] Amplicons were detected by using SYBR® Green I dye as fluorophore. […] For each gene, a threshold cycle (Ct) number, which represents the number of cycles required to reach the threshold fluorescence, was determined. […]

[2] = system: ERK1/2 phospho-isoforms; assay: NIA analysis of ERK isoforms in tumor FNAs of mice with MYC-induced lymphoma; assay type: in vivo, mouse; details: FIG. 18
Protocol: (§1) Nanoimmunoassay (NIA). NIA was performed using the Nanopro 1000 (Protein Simple) to detect the phosphorylation states of ERK1 and ERK2 in lysates generated from lung tumor tissue. NIA is a highly sensitive capillary-based isoelectric focusing method that uses antibody detection to quantify protein isoforms as well as characterize post-translational protein modifications such as phosphorylation. The final protein concentration loaded into each capillary of the Nanopro 1000 was 0.1 μg/μL. The primary rabbit antibody for ERK1/2 (Millipore) was diluted 1:300 and the primary mouse antibody for the loading control, Hsp70 (Santa Cruz Biosciences), was diluted 1:500. The anti-mouse and anti-rabbit secondary antibodies, conjugated to horse radish peroxidase, were diluted 1:100. Chemiluminescence signal was recorded following the addition of luminol and peroxide detection reagents. Analysis of NIA data was performed in Compass software (Protein Simple).
Mice with MYC-induced lymphoma were treated with FTS. Tumors from mouse untreated or after 4 days of treatment were sampled by fine needle aspirate. FNAs were flash frozen and batch analyzed. NIA was used to analyze ERK isoforms using NIA.

[3] = system: ERK1/2 phosphorylation; assay: NIA analysis of ERK isoforms in FNAs from transgenic lymphoma; assay type: in vivo, mouse; details: Day 4 of FTS treatment, FIG. 22
Protocol: as §1
Tumors were sampled by fine needle aspirate prior to treatment (UnTx), and […] after 1-8 days of treatment with FTS.
Comparison with dox is shown. Mice were either treated with FTS (BC2FTS) or BCL2 inactivation (BCL2Dox). Tumors were sampled by fine needle aspirate prior to treatment (UnTx), and […] after 1-8 days of treatment with FTS.

[4] = system: BCL2-induced lymphoma; assay: Tumor growth in mice with BCL2-induced lymphoma; assay type: in vivo, mouse; details: RAS inactivation by FTS together with BCL2 inactivation by DOX; FIG. 21
Excerpt: Inactivation of both BCL2 and Ras inhibits tumor growth more effectively than either oncogene alone: mice with BCL2-induced lymphoma. Plots of tumor area over time in mice cohorts: untreated (UnTx), with BCL2 inactivated (BCL2 off), Ras inactivated (Ras off, or both BCL2 and Ras inactivated (BCL2off,Ras off).

[5] = system: A549; assay: Cell proliferation upon FASN inhibition (PI assay, hemocytometer cell counting), A549; assay type: cell-based, human; details: cerulenin 1-10 μg/mL, FIG. 6A
Excerpt: (§2) Cell culture. The human non-small cell lung carcinoma cell lines, A549 and H1299, were used for in vitro experiments. A549 cells were maintained in Dulbecco's Modified Eagle Medium (DMEM) supplemented with 10% fetal bovine serum (FBS), 1% L-glutamine, 1% sodium pyruvate, 1% nonessential amino acids, and Antibiotic-Antimycotic. […] Trypsin-EDTA was used to passage both A549 and H1299 cells. All cell culture reagents were purchased from Gibco® (Thermo Fisher Scientific Inc.).
(§3) Small molecule inhibitors. […] FTS is a synthetic famesylcysteine mimetic which interferes with the anchoring of KRAS to the plasma membrane. […] Various levels of these drugs were administered to cells in culture over a time course in order to assess dose-response relationships.
(§4) Cell counting. A volume of cells was removed from culture medium and mixed with an equal volume of 0.4% Trypan blue stain. Then 10 μL was taken out and placed into a hemocytometer for cell counting. Viable cell counts were used as a measure of cell proliferation.

[6] = system: H1299; assay: Cell proliferation upon FASN inhibition (PI assay, hemocytometer cell counting), H1299; assay type: cell-based, human; details: cerulenin 1-10 μg/mL, FIG. 6B
Excerpt: as §2, §3, §4

[7] = system: Erk pathway; assay: NIA of ERK isoforms in head and neck squamous cell carcinoma before and after rigosertib; assay type: in vivo, human; details: one head and neck cancer patient; pre- vs post-treatment; FIG. 32
Protocol: Patients receive 2 cycles of 2 weeks of treatment with 1 week off regimen. For Cycle 1, Day 14 only, 5 patients with HNSCC will undergo biopsy or FNA for nano-proteomic profiling of total- and phospho-proteins in pathways inhibited by rigosertib, ERK and loading control. For Cycle 1 Day 14 and Cycle 2 Day 14, pharmacokinetic blood analyses are performed. […] A patient with head and neck cancer treated on clinical trial of rigosertib had tumor sampled before (pre-treatment) and after (post-treatment) treatment. NIA was used to measure ERK isforms.

[8] = system: tumor burden; assay: Tumor burden in patients on clinical trial of atorvastatin; assay type: in vivo, human; details: eight days of treatment
[9] = system: MEK1 phospho-isoforms; assay: NIA of MEK isoforms in NHL patients before and after atorvastatin; assay type: in vivo, human
Protocol: Nine patients were treated on clinical trial of HMG co-A reductase inhibitor atorvastatin. NIA was used to measure changes in MEK isoforms before (day 1) and after eight days of treatment.
Nine patients were treated on clinical trial of HMG co-A reductase inhibitor atorvastatin. NIA was used to measure changes in MEK isoforms before (day 1) and after 8 days of treatment.

[10] = molecular target: FASN (Homo sapiens, UniProt P49327); details: background description; cited from earlier work
FASN, sequence (P49327 whole entry, species assumed): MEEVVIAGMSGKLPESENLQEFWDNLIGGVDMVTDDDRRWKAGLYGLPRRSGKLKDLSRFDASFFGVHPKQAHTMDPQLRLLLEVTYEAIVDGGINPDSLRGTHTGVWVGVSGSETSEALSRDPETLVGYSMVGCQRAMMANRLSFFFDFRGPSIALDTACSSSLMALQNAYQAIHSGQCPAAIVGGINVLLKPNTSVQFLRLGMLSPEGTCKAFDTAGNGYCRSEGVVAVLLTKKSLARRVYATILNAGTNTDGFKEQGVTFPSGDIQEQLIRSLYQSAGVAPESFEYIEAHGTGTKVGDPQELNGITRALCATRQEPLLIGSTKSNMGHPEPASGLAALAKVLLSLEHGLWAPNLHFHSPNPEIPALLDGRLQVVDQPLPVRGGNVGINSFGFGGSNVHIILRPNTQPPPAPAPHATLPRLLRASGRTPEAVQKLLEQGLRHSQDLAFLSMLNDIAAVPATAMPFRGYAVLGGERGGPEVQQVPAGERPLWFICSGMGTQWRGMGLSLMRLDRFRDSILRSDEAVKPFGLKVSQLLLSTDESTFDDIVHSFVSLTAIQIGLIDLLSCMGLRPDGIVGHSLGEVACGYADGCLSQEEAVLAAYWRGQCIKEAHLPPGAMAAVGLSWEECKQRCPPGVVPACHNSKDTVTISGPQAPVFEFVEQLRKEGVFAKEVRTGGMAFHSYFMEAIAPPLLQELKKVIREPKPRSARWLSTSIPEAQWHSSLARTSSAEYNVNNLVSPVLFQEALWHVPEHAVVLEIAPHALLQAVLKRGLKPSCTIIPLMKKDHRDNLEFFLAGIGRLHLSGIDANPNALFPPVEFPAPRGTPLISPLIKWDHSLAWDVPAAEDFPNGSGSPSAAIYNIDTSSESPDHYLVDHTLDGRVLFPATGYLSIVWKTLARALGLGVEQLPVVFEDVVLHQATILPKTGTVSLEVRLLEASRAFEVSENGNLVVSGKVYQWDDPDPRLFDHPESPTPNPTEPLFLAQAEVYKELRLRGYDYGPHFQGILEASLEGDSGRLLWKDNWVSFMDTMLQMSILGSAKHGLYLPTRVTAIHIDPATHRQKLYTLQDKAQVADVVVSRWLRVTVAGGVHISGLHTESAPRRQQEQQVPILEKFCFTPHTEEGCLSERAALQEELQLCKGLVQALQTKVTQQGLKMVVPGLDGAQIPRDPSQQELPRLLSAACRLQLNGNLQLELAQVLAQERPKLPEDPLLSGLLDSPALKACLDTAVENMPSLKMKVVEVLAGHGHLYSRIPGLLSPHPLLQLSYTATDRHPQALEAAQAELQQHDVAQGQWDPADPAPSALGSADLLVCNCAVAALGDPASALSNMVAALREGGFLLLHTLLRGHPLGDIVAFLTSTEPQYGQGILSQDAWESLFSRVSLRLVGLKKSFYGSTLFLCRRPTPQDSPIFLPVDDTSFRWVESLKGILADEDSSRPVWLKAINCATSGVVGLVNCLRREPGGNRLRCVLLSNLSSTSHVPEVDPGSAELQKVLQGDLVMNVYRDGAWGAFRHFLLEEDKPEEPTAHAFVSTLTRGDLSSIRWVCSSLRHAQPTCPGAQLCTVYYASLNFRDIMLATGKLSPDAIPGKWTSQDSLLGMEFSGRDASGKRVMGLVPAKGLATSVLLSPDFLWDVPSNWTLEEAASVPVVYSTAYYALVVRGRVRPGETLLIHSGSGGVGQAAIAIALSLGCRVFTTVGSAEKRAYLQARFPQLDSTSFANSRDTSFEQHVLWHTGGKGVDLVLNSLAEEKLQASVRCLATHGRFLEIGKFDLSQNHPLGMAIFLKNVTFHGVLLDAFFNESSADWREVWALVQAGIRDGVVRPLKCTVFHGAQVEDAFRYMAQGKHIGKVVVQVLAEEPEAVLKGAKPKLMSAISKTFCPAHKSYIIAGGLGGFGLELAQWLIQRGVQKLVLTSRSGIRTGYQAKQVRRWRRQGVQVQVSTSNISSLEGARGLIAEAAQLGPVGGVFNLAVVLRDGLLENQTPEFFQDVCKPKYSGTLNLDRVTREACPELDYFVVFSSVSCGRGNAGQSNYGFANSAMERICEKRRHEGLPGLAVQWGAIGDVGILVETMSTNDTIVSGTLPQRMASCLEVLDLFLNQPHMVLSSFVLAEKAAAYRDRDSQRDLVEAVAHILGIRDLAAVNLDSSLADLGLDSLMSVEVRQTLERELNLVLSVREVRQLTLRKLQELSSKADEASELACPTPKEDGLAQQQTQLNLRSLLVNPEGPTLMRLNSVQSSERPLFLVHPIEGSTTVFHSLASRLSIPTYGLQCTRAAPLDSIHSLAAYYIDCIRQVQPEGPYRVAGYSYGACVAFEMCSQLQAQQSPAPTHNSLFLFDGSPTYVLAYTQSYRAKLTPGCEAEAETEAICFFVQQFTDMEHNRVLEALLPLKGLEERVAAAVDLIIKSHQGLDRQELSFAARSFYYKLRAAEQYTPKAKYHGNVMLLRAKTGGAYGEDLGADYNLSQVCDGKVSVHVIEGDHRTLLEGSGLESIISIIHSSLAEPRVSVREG

CC(C)=CCC/C(C)=C/CC/C(C)=C/CSc1ccccc1C(=O)O [FTS, S-trans,trans-farnesylthiosalicylic acid]
Gene expression of FASN and SCD upon KRAS inhibition ([1]; human lung cancer cell line, FTS at 5-20 ng/mL, FIG. 5B): decreased the gene expression of FASN and SCD in a dose-dependent manner | Total ERK1/2 level ([2]; FNA after 4 days of treatment): did not change | Phospho-ERK isoforms ([2]; FNA on day 4 of treatment): all phospho-ERK isoforms decreased | Decrease of ERK1/2 phosphorylation [3]: 35% | Tumor growth inhibition [4]: inhibits tumor growth more effectively than inactivating either oncogene alone

C/C=C/C/C=C/CCC(=O)[C@H]1O[C@H]1C(N)=O [Cerulenin]
Cell proliferation [5]: decreased proliferation | Cell proliferation [6]: decreased proliferation

COc1cc(OC)c(/C=C/S(=O)(=O)Cc2ccc(OC)c(NCC(=O)O)c2)c(OC)c1 [Rigosertib]
Erk pathway activity (ERK isoforms by NIA) [7]: decreases Erk pathway

CC(C)c1c(C(=O)Nc2ccccc2)c(-c2ccccc2)c(-c2ccc(F)cc2)n1CC[C@@H](O)C[C@@H](O)CC(=O)O [atorvastatin]
Tumor burden ([8]; patient A): tumor burden decreased | Tumor burden ([8]; patient B): no change in tumor burden | Patients with significant changes in di-phospho-MEK1 ([9]; day 1 vs after 8 days of treatment, FIG. 27): four of nine | Patients with significant changes in tri-phospho-MEK1 ([9]; day 1 vs after eight days of treatment, FIG. 26): four of nine | Patients with significant changes in Mono-phospho-MEK1 ([9]; day 1 vs after eight days of treatment, FIG. 28): one of nine

O=C(Nc1ccc2[nH]nc(-c3ccncc3)c2c1)[C@@H]1CCN(CC(=O)N2CCN(c3ccc(-c4ncccn4)cc3)CC2)C1 [SCH772984]
Relative mRNA expression of FASN and SCD upon ERK inhibition ([1]; A549 and H1299 cells, SCH772984 at 125 ng/mL, FIG. 5A): suppression of FASN and SCD

epigallocatechin-3-gallate [EGCG]
FASN inhibitory potency [10]: high micromolar

Cc1ccnc(NS(=O)(=O)c2ccc(NC(=O)Nc3ccc(S(=O)(=O)Nc4nccc(C)n4)cc3)cc2)n1 [GSK837149A]
FASN inhibitory potency [10]: low, nanomolar

C=C1C(=O)OC(CCCCCCCC)C1C(=O)O (centres unmarked) [C75]
FASN inhibitory potency [10]: weak, irreversible inhibitor
